The supplement of paper PMC4932681
Where a name gives a salt, the structure may show the parent alone.

Tests used:
BT-474 Tam1 [1] = test: relative IC50 (midpoint of fitted logistic curve, plateau may be below 50% inhibition; CellTiter-Glo viability); higher = less potent; settings: 4-OH-tamoxifen in medium 1 µM; 72 h
Procedure: (§1)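 FIMM FO2B library drugs were plated at 5 concentrations spanning a 10,000-fold range in 384-well plates. Cells were incubated for 72 h at 37 °C and viability was read by CellTiter-Glo, normalised to DMSO (0% inhibition) and 100 µM benzethonium chloride (100% inhibition). IC50 values come from logistic dose-response fits (Breeze pipeline). Tamoxifen-resistant lines and the 'in 1µM tamoxifen' parental arms were tested in medium with 1 µM 4-OH-tamoxifen.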

BT-474 Tam2 [2] = test: as above; settings: 4-OH-tamoxifen in medium 1 µM; 72 h
Procedure: as §1

T-47D [3] = test: as above; settings: 72 h
Procedure: as §1

ZR-75-1 Tam2 [4] = test: as above; settings: 4-OH-tamoxifen in medium 1 µM; 72 h
Procedure: as §1

MCF-7 [5] = test: as above; settings: 72 h
Procedure: as §1

BT-474 [6] = test: as above; settings: 72 h
Procedure: as §1

ZR-75-1 Tam1 [7] = test: as above; settings: 4-OH-tamoxifen in medium 1 µM; 72 h
Procedure: as §1

MCF-7 Tam1 = test: drug sensitivity score (DSS) (DSS (dimensionless)); higher = more sensitive; extreme values may be limits of the assay; settings: 4-OH-tamoxifen in medium 1 µM; 72 h
Procedure: (§2)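 FIMM FO2B library drugs were tested at 5 concentrations (10,000-fold range) for 72 h, with CellTiter-Glo viability normalised to DMSO and benzethonium chloride controls. The Drug Sensitivity Score (DSS) is computed from the fitted logistic dose-response curve (area-based; 0 = inactive). Resistant lines and the 'in 1µM tamoxifen' arms were tested in 1 µM 4-OH-tamoxifen.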

BT-474 Tam1 [8] = test: as above; settings: 4-OH-tamoxifen in medium 1 µM; 72 h
Procedure: as §2

BT-474 Tam2 [9] = test: as above; settings: 4-OH-tamoxifen in medium 1 µM; 72 h
Procedure: as §2

T-47D [10] = test: as above; settings: 72 h
Procedure: as §2

T-47D Tam2 = test: as above; settings: 4-OH-tamoxifen in medium 1 µM; 72 h
Procedure: as §2

ZR-75-1 [11] = test: as above; settings: 72 h
Procedure: as §2

ZR-75-1 Tam2 [12] = test: as above; settings: 4-OH-tamoxifen in medium 1 µM; 72 h
Procedure: as §2

MCF-7 [13] = test: as above; settings: 72 h
Procedure: as §2

BT-474 [14] = test: as above; settings: 72 h
Procedure: as §2

T-47D Tam1 [15] = test: as above; settings: 4-OH-tamoxifen in medium 1 µM; 72 h
Procedure: as §2

ZR-75-1 Tam1 [16] = test: as above; settings: 4-OH-tamoxifen in medium 1 µM; 72 h
Procedure: as §2

ZR-75-1 [17] = test: relative IC50 (midpoint of fitted logistic curve, plateau may be below 50% inhibition; CellTiter-Glo viability); higher = less potent; settings: 72 h
Procedure: as §1

T-47D Tam1 [18] = test: as above; settings: 4-OH-tamoxifen in medium 1 µM; 72 h
Procedure: as §1

Row | Compound | relative IC50 (BT-474 Tam1 [1]) [µM] | relative IC50 (BT-474 Tam2 [2]) [µM] | relative IC50 (T-47D [3]; 4-OH-tamoxifen in medium 1 µM) [µM] | relative IC50 (MCF-7 [5]; 4-OH-tamoxifen in medium 0 µM) [µM] | relative IC50 (MCF-7 [5]; 4-OH-tamoxifen in medium 1 µM) [µM] | relative IC50 (BT-474 [6]; 4-OH-tamoxifen in medium 1 µM) [µM] | relative IC50 (T-47D Tam1 [18]) [µM] | relative IC50 (BT-474 [6]; 4-OH-tamoxifen in medium 0 µM) [µM] | relative IC50 (T-47D [3]; 4-OH-tamoxifen in medium 0 µM) [µM] | relative IC50 (ZR-75-1 Tam2 [4]) [µM] | relative IC50 (ZR-75-1 Tam1 [7]) [µM] | drug sensitivity score (MCF-7 Tam1) | drug sensitivity score (BT-474 Tam1 [8]) | drug sensitivity score (BT-474 Tam2 [9]) | drug sensitivity score (T-47D [10]; 4-OH-tamoxifen in medium 0 µM) | drug sensitivity score (T-47D [10]; 4-OH-tamoxifen in medium 1 µM) | drug sensitivity score (T-47D Tam2) | drug sensitivity score (ZR-75-1 [11]; 4-OH-tamoxifen in medium 0 µM) | drug sensitivity score (ZR-75-1 [11]; 4-OH-tamoxifen in medium 1 µM) | drug sensitivity score (ZR-75-1 Tam2 [12]) | drug sensitivity score (MCF-7 [13]; 4-OH-tamoxifen in medium 0 µM) | drug sensitivity score (MCF-7 [13]; 4-OH-tamoxifen in medium 1 µM) | drug sensitivity score (BT-474 [14]; 4-OH-tamoxifen in medium 0 µM) | drug sensitivity score (BT-474 [14]; 4-OH-tamoxifen in medium 1 µM) | drug sensitivity score (T-47D Tam1 [15]) | drug sensitivity score (ZR-75-1 Tam1 [16]) | relative IC50 (ZR-75-1 [17]; 4-OH-tamoxifen in medium 0 µM) [µM] | relative IC50 (ZR-75-1 [17]; 4-OH-tamoxifen in medium 1 µM) [µM]
1 | O=C(c1ccc(OCCN2CCCCC2)cc1)c1c(-c2ccc(O)cc2)sc2cc(O)ccc12 [Raloxifene  HCl] | 4 | 4.22 | > 10 | 0.553 | 2.65 | 3.74 | – | – | – | > 10 | > 10 | 0.681 | 1.74 | 1.14 | 0.0005 | 0 | 1.8 | 0.0043 | 0.0503 | 0 | 3.69 | 1.88 | 0.75 | 2.42 | 0.0352 | 0 | – | –
2 | CNC(=O)c1cc(Oc2ccc(NC(=O)Nc3ccc(Cl)c(C(F)(F)F)c3)c(F)c2)ccn1 [Regorafenib (BAY 73-4506)] | 3.61 | 2.43 | – | 3.54 | 3.34 | 3.94 | 0.37 | 3.83 | – | 1.94 | – | 0 | 4.57 | 5.3 | 1.1 | 0.365 | 0.22 | 0.232 | 0.299 | 2.33 | 2.49 | 1.46 | 1.48 | 3.22 | 9.09 | 0.695 | – | –
3 | Nc1ccccc1NC(=O)c1ccc(CNC(=O)OCc2cccnc2)cc1 [Entinostat] | 3.73 | 2.81 | 3.99 | 2.99 | 3.28 | 3.39 | 1.82 | 3.44 | 3.89 | – | – | 0 | 3.73 | 3.18 | 2.94 | 1.33 | 0.0349 | 1.19 | 0 | 0.992 | 3.59 | 1.94 | 3.08 | 4.39 | 5.11 | 1.06 | 3.96 | –
4 | CC(C)c1c(C(=O)Nc2ccccc2)c(-c2ccccc2)c(-c2ccc(F)cc2)n1CC[C@@H](O)C[C@@H](O)CC(=O)O [Atorvastatin] | – | – | 3.21 | – | – | > 10 | – | – | 1.82 | 1.43 | 1.72 | 0 | 0.517 | 2.17 | 2.75 | 1.73 | 0.823 | 4.64 | 2.87 | 3.56 | 0.619 | 1.69 | 0.471 | 0 | 3.38 | 3.76 | 1.17 | 1.65

Continued, in another order:

Row | relative IC50 (BT-474 Tam1 [1]) [µM] | relative IC50 (BT-474 Tam2 [2]) [µM] | relative IC50 (T-47D [3]; 4-OH-tamoxifen in medium 1 µM) [µM] | relative IC50 (MCF-7 [5]; 4-OH-tamoxifen in medium 0 µM) [µM] | relative IC50 (MCF-7 [5]; 4-OH-tamoxifen in medium 1 µM) [µM] | relative IC50 (BT-474 [6]; 4-OH-tamoxifen in medium 1 µM) [µM] | relative IC50 (T-47D Tam1 [18]) [µM] | relative IC50 (BT-474 [6]; 4-OH-tamoxifen in medium 0 µM) [µM] | relative IC50 (T-47D [3]; 4-OH-tamoxifen in medium 0 µM) [µM] | Compound | relative IC50 (ZR-75-1 Tam2 [4]) [µM] | relative IC50 (ZR-75-1 Tam1 [7]) [µM] | drug sensitivity score (MCF-7 Tam1) | drug sensitivity score (BT-474 Tam1 [8]) | drug sensitivity score (BT-474 Tam2 [9]) | drug sensitivity score (T-47D [10]; 4-OH-tamoxifen in medium 0 µM) | drug sensitivity score (T-47D [10]; 4-OH-tamoxifen in medium 1 µM) | drug sensitivity score (T-47D Tam2) | drug sensitivity score (ZR-75-1 [11]; 4-OH-tamoxifen in medium 0 µM) | drug sensitivity score (ZR-75-1 [11]; 4-OH-tamoxifen in medium 1 µM) | drug sensitivity score (ZR-75-1 Tam2 [12]) | drug sensitivity score (MCF-7 [13]; 4-OH-tamoxifen in medium 0 µM) | drug sensitivity score (MCF-7 [13]; 4-OH-tamoxifen in medium 1 µM) | drug sensitivity score (BT-474 [14]; 4-OH-tamoxifen in medium 0 µM) | drug sensitivity score (BT-474 [14]; 4-OH-tamoxifen in medium 1 µM) | drug sensitivity score (T-47D Tam1 [15]) | drug sensitivity score (ZR-75-1 Tam1 [16]) | relative IC50 (ZR-75-1 [17]; 4-OH-tamoxifen in medium 0 µM) [µM] | relative IC50 (ZR-75-1 [17]; 4-OH-tamoxifen in medium 1 µM) [µM]
5 | – | – | – | 0.000493 | 0.002 | > 0.1 | 0.00204 | – | – | CO[C@H]1C[C@@H]2CC[C@@H](C)[C@@](O)(O2)C(=O)C(=O)N2CCCC[C@H]2C(=O)O[C@H]([C@H](C)C[C@@H]2CC[C@@H](OC(=O)C(C)(CO)CO)[C@H](OC)C2)CC(=O)[C@H](C)/C=C(\C)[C@@H](O)[C@@H](OC)C(=O)[C@H](C)C[C@H](C)/C=C/C=C/C=C/1C [Temsirolimus] | 0.00108 | 0.00267 | 0.189 | 1.35 | 0.262 | 3.79 | 0.468 | 2.09 | 8.12 | 4.72 | 8.51 | 10.3 | 6.12 | 0.668 | 0 | 5.45 | 4.48 | 0.000917 | –
6 | – | – | – | 0.00104 | 0.000952 | – | – | – | – | CO[C@H]1C[C@@H]2CC[C@@H](C)[C@@](O)(O2)C(=O)C(=O)N2CCCC[C@H]2C(=O)O[C@H]([C@H](C)C[C@@H]2CC[C@@H](OCCO)[C@H](OC)C2)CC(=O)[C@H](C)/C=C(\C)[C@@H](O)[C@@H](OC)C(=O)[C@H](C)C[C@H](C)/C=C/C=C/C=C/1C [Everolimus] | 0.00123 | 0.00352 | 0.336 | 1.16 | 2.18 | 5.82 | 2.41 | 3.34 | 8.05 | 4.22 | 9.02 | 11.6 | 8.24 | 7.06 | 0.135 | 4.62 | 4.45 | 0.00127 | 0.00347
7 | – | – | – | 0.00103 | 0.00328 | > 0.1 | 0.00206 | – | 0.00563 | CO[C@H]1C[C@@H]2CC[C@@H](C)[C@@](O)(O2)C(=O)C(=O)N2CCCC[C@H]2C(=O)O[C@H]([C@H](C)C[C@@H]2CC[C@@H](OP(C)(C)=O)[C@H](OC)C2)CC(=O)[C@H](C)/C=C(\C)[C@@H](O)[C@@H](OC)C(=O)[C@H](C)C[C@H](C)/C=C/C=C/C=C/1C [Ridaforolimus] | 0.001 | 0.00327 | 0.718 | 2 | 2.86 | 4.69 | 1.51 | 2.97 | 8.67 | 4.9 | 10.1 | 12.2 | 5.81 | 6.16 | 0 | 5.75 | 5.15 | 0.00123 | 0.00176
